The source of these data is US20100210649A1, “PYRIDAZINONES AND FURAN-CONTAINING COMPOUNDS” (Sloan-Kettering Institute for Cancer Research, priority 2006, published 2010).

One assay relates to H23. Description: Dose response study (Alamar Blue), H23. The conditions noted are these: Homo sapiens, NCI-H23; H23; 12 point doubling dilution 10 uM to 5 nM; 48 h treatment, alamar blue additional 48 h; read-out: IC50 H23. The format is cell-based. As for the experimental part:
(§1) Dose response studies against 34 compounds from the pyridazinone and phenylfuran-carboxamide class were conducted. […] In addition, Tarceva was included in these dose response studies.
(§2) The dose response studies were done with the following standard procedure. First, the cells were counted and dispensed at 250 cells/well into 384-well microplates with compound. The cells were incubated for 48 hours at 37 C to complete treatment, and then alamar blue was added for an additional 48 hours. Finally, alamar blue reduction was measured and the data was loaded into ORIS, our data screening acquisition platform.

The test system of assay [1] is HPL1D (human peripheral lung epithelial) cell line. Kind of assay: Cell proliferation / dose response (Alamar Blue), HPL1D. The conditions noted are these: HPL1D, 12 point doubling dilution 10 uM to 5 nM, 48 h treatment, alamar blue additional 48 h, read-out: IC50 HPL1D. The format is cell-based. On the procedure: WI-38: human lung fibroblast cell line. […] WT: wildtype; WT*: over-expressed wildtype. Dose response studies against 34 compounds from the pyridazinone and phenylfuran-carboxamide class were conducted. […] In addition, Tarceva was included in these dose response studies. The dose response studies were done with the following standard procedure. […] The cells were incubated for 48 hours at 37 C to complete treatment, and then alamar blue was added for an additional 48 hours. Finally, alamar blue reduction was measured and the data was loaded into ORIS, our data screening acquisition platform.
For orientation: Resazurin is reduced to fluorescent resorufin, in cell work by metabolically active cells.

The test system of another assay is PC9. Kind of assay: Dose response study (Alamar Blue), PC9. The format is cell-based. The conditions noted are these: Homo sapiens, PC-9; PC9; 12 point doubling dilution 10 uM to 5 nM; 48 h treatment, alamar blue additional 48 h; read-out: IC50 PC9. On the procedure:
as §1, §2

For another assay, the system named is H2030. Kind of assay: Non Small Cell Lung Cancer proliferation assay (Alamar Blue reduction), H2030. The format is cell-based, human. The conditions noted are these: for pIC50: NCI-H2030, 48 h, 12 point doubling dilution 10 uM to 5 nM, 48 h treatment, alamar blue additional 48 h, read-out: IC50 H2030. Summed up:
(§3)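 Viability after 48 hours of drug exposure at 37° C is scored by Alamar Blue reduction over a subsequent 48 hours, read at 530/590 nm. DMSO-only wells (1% final) define the high control.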

The subject of a further assay is H1650. Kind of assay: Non Small Cell Lung Cancer proliferation assay (Alamar Blue reduction), H1650. The assay is classed as cell-based, human. Particulars: for pIC50: NCI-H1650, 48 h, 12 point doubling dilution 10 uM to 5 nM, 48 h treatment, alamar blue additional 48 h, read-out: IC50 H1650. In outline: as §3
A further assay deals with A549. Kind of assay: Dose response study (Alamar Blue), A549. The conditions noted are these: Homo sapiens; A549; 12 point doubling dilution 10 uM to 5 nM; 48 h treatment, alamar blue additional 48 h; read-out: IC50 A549. The format is cell-based. On the procedure: as §1, §2
Another assay concerns H460. Description: Dose response study (Alamar Blue), H460. The format is cell-based. The conditions noted are these: Homo sapiens, NCI-H460; H460; 12 point doubling dilution 10 uM to 5 nM; 48 h treatment, alamar blue additional 48 h; read-out: IC50 H460. On the procedure: as §1, §2
In the next assay the test system is H820. Kind of assay: Dose response study (Alamar Blue), H820. The format is cell-based. The conditions noted are these: Homo sapiens, NCI-H820; H820; 12 point doubling dilution 10 uM to 5 nM; 48 h treatment, alamar blue additional 48 h; read-out: IC50 H820. On the procedure: as §1, §2
The subject of the next assay is H2444. Description: Dose response study (Alamar Blue), H2444. The assay is classed as cell-based. Particulars: Homo sapiens, NCI-H2444; H2444; 12 point doubling dilution 10 uM to 5 nM; 48 h treatment, alamar blue additional 48 h; read-out: IC50 H2444. As for the experimental part:
as §1, §2

The test system of the next assay is H3255. Description: Non Small Cell Lung Cancer proliferation assay (Alamar Blue reduction), H3255. The format is cell-based, human. The conditions noted are these: for pIC50: NCI-H3255, 48 h, 12 point doubling dilution 10 uM to 5 nM, 48 h treatment, alamar blue additional 48 h, read-out: IC50 H3255. Summed up: as §3
Setting [2] is: percentage inhibition, 10 μM compound in 1% DMSO (v/v).
Setting [3] is: Homo sapiens, NCI-H2030, dose response 10 M to 5 nM, IC50, read-out: Dose Response (uM) H2030.
[4] abbreviates: Homo sapiens, NCI-H1650, dose response 10 M to 5 nM, IC50, read-out: Dose Response (uM) H1650.
Setting [5] is: Homo sapiens, NCI-H3255, dose response 10 M to 5 nM, IC50, read-out: Dose Response (uM) H3255.

pIC50: −log10 of the molar value. Where two headings read alike, the source gives them in different places.

Broadly, the pIC50 is the negative decadic logarithm of the IC50, by convention in mol/L. Broadly, the inhibition is the drop in the measured response relative to a control, in per cent. Consider `O=C(Nc1ccc(F)c(Cl)c1)c1ccc([N+](=O)[O-])o1` [compound 87200], for which the pIC50 is 5.34 in the assay with H23; less than 5.00 in assay [1]; 5.06 with PC9; 5.07 with H2030 (Homo sapiens, H2030); 5.13 with H1650 (Homo sapiens, H1650); less than 5.00 in the assay with A549. In addition, the pIC50 in the assay on H460 is less than 5.00; in the assay on H820, less than 5.00; in the assay on H2444, less than 5.00; in the assay on H3255 (Homo sapiens, H3255), less than 5.00. For the same compound, the IC50 in the assay on H2030 (Homo sapiens, NCI-H2030, phenylfuran-2-carboxamide SAR summary, read-out: IC50(uM) 2030) came out at 1.01 µM; with H1650 (Homo sapiens, NCI-H1650, phenylfuran-2-carboxamide SAR summary, read-out: IC50(uM) 1650), 0.29 µM; in the assay on H3255 (Homo sapiens, NCI-H3255, phenylfuran-2-carboxamide SAR summary, read-out: IC50(uM) 3255), 0.69 µM. Besides, the inhibition at 10 µM in the assay on H2030 (Homo sapiens, NCI-H2030, primary screening, H2030, 10 μM compound in 1% DMSO (v/v), read-out: PRIMARY HTS [%] H2030 (percentage inhibition)) is 23%; in the assay on H1650 (Homo sapiens, NCI-H1650, primary screening, H1650, 10 μM compound in 1% DMSO (v/v), read-out: PRIMARY HTS [%] H1650 (percentage inhibition)) it was 103%; in the assay with H3255 (Homo sapiens, NCI-H3255, primary screening, H3255, 10 μM compound in 1% DMSO (v/v), read-out: PRIMARY HTS [%] H3255 (percentage inhibition)), 6%. Further, the “CONFIRMATION [%] 2030” value in the assay with H2030 (setting [2]) turned out to be 107%. Also, the “CONFIRMATION [%] 1650” value with H1650 (setting [2]) came to 112%. For the same compound, the “CONFIRMATION [%] 3255” value with H3255 (setting [2]) turned out to be 103%.
Turning to `Cc1cccc(-n2ncc(I)c(I)c2=O)c1` [compound 267085], the negative logarithm of the IC50 (pIC50) was 6.14 in the assay with H23; 6.17 in assay [1]; 5.65 with PC9; 6.09 in the assay with H2030 (Homo sapiens, H2030); 5.50 in the assay on H1650 (Homo sapiens, H1650); 5.49 in the assay on A549. In addition, the pIC50 in the assay with H460 was 5.46; in the assay with H820, 6.39; with H2444 it was 6.28; with H3255 (Homo sapiens, H3255), 5.67. Moreover, the values for the IC50 with H2030 (setting [3]), in the assay on H1650 (setting [4]) and in the assay with H3255 (setting [5]) were 0.99 µM, 1.93 µM and 0.71 µM, respectively.
`Cc1ccc(-n2ncc(Cl)c(Cl)c2=O)cc1Cl` [compound 267070]: the pIC50 in the assay with H23 is less than 5.00; in [1], less than 5.00; in the assay on PC9 it was less than 5.00; in the assay on H2030 (Homo sapiens, H2030) it was less than 5.00; in the assay on H1650 (Homo sapiens, H1650), less than 5.00; in the assay with A549, less than 5.00. The pIC50 was less than 5.00 in the assay with H460; less than 5.00 in the assay with H820; less than 5.00 in the assay with H2444; less than 5.00 with H3255 (Homo sapiens, H3255). Also, the results for the IC50 in the assay on H2030 (setting [3]), in the assay with H1650 (setting [4]) and in the assay with H3255 (setting [5]) were 5.18 µM, more than 10 µM and 3.1 µM, respectively.
In the case of `O=c1c(Br)c(Br)cnn1-c1ccccn1` [compound 267073], the pIC50 with H23 was 7.15; in assay [1], 6.96; in the assay with PC9, 6.38; in the assay on H2030 (Homo sapiens, H2030), 6.92; with H1650 (Homo sapiens, H1650) it was 6.10; in the assay on A549, 6.51. Besides, the negative logarithm of the IC50 (pIC50) in the assay on H460 is 6.38; in the assay on H820, 7.00; with H2444 it was 6.89; in the assay on H3255 (Homo sapiens, H3255), 6.35. Moreover, the figures for the IC50 with H2030 (setting [3]), in the assay with H1650 (setting [4]) and in the assay on H3255 (setting [5]) were 0.76 µM, 0.8 µM and 0.66 µM, respectively.
`O=c1c(Cl)c(Cl)cnn1-c1ccccn1` [compound 267090]: the pIC50 in the assay with H23 was 7.10; in [1] it was 6.77; with PC9, 6.33; with H2030 (Homo sapiens, H2030), 6.77; with H1650 (Homo sapiens, H1650), 5.85; in the assay with A549, 6.27. Moreover, the pIC50 was 6.10 in the assay on H460; 6.85 in the assay with H820; 6.66 with H2444; 6.15 in the assay with H3255 (Homo sapiens, H3255). Further, the IC50 in the assay on H2030 (setting [3]) was determined as 0.41 µM; with H1650 (setting [4]) it was 1.29 µM; with H3255 (setting [5]), 0.5 µM.
